Laboratory results published in patent publication US11976073B2, “Bicyclic amines as CDK2 inhibitors” (Incyte Corporation, priority 2021, dated 2024).

What was measured:
[1] = target: T1, CDK2/Cyclin E1 (Homo sapiens, UniProt P24941); assay: CDK2/Cyclin E1 HTRF enzyme activity assay; assay type: biochemical; conditions: 1 mM ATP
T1 construct: utilize full-length human CDK2 co-expressed as N-terminal GST-tagged protein; GST (N); purchased Carna 04-165; host or cells: baculovirus expression system
Experimental: Example A. CDK2/Cyclin E1 HTRF Enzyme Activity Assay
CDK2/Cyclin E1 enzyme activity assays utilize full-length human CDK2 co-expressed as N-terminal GST-tagged protein with FLAG-Cyclin E1 in a baculovirus expression system (Carna Product Number 04-165). Assays were conducted in white 384-well polystyrene plates in a final reaction volume of 8 μL. CDK2/Cyclin E1 (0.25 nM) was incubated with the compounds of the Examples (40 nL serially diluted in DMSO) in the presence of ATP (50 μM or 1 mM) and 50 nM ULight™-labeled eIF4E-binding protein 1 (THR37/46) peptide (PerkinElmer) in assay buffer (containing 50 mM HEPES pH 7.5, 1 mM EGTA, 10 mM MgCl2, 2 mM DTT, 0.05 mg/mL BSA, and 0.01% Tween 20) for 60 minutes at room temperature. The reactions were stopped by the addition of EDTA and Europium-labeled anti-phospho-4E-BP1 antibody (PerkinElmer), for a final concentration of 15 mM and 1.5 nM, respectively. HTRF signals were read after 1 hour at room temperature on a PHERAstar FS plate reader (BMG Labtech). Data was analyzed with IDBS XLFit and GraphPad Prism 5.0 software using a three or four parameter dose response curve to determine IC50 for each compound.

[2] = target: CDK2 (Homo sapiens, UniProt P24941); assay: Enzymatic binding data against CDK2 (comparison of isomeric peaks); assay type: biochemical; conditions: Peak 1 vs Peak 2 of Example 2, TFA salts
Experimental: To a solution of 6-(1-(1-ethoxyethyl)-1H-pyrazol-4-yl)-5-(1-(trifluoromethyl)cyclobutoxy)-[1,2,4]triazolo[…] (20 mg, 0.05 mmol) and 4-(methylsulfonyl)cyclohexan-1-one (26 mg, 0.15 mmol) in DCE (0.8 mL) was added TFA (0.2 mL) and sodium triacetoxyborohydride (31 mg, 0.15 mmol) and the resulting solution was stirred at 60° C. After 4 h, a second aliquot of 4-(methylsulfonyl)cyclohexan-1-one (13 mg, 0.08 mmol) and sodium triacetoxyborohydride (15 mg, 0.08 mmol) was added and stirring was continued overnight at 60° C. The volatiles were removed and the residue was dissolved in CH3CN and purified by prep-HPLC (Sunfire C18 column, eluting with a gradient of 21% to 39% acetonitrile/water containing 0.1% TFA over 12 minutes at a flow rate of 60 mL/min) to afford two isomeric peaks as their TFA salts. Peak 1 eluted at 8.8 min and Peak 2 eluted at 9.9 min. […] LC-MS calculated for C20H25F3N7O3S (M+H)^+: m/z=500.2; found 500.2.

Row | SMILES | IC50 [1] [nM] | relative activity of the isomeric peaks against CDK2 [2]
1 | CC(C)Oc1c(-c2cn[nH]c2)ncn2nc(NC3CCC(S(C)(=O)=O)CC3)nc12 (single isomer, unassigned) [Example 1, 8-Isopropoxy-N-(4-(methylsulfonyl)cyclohexyl)-7-(1H-pyrazol-4-yl)-[1,2,4]triazolo[1,5-c]pyrimidin-2-amine] | ≤ 10 | 
2 | CS(=O)(=O)C1CCC(Nc2nc3cnc(-c4cn[nH]c4)c(OC4(C(F)(F)F)CCC4)n3n2)CC1 (single isomer, unassigned) [Example 2, N-(4-(Methylsulfonyl)cyclohexyl)-6-(1H-pyrazol-4-yl)-5-(1-(trifluoromethyl)cyclobutoxy)-[1,2,4]triazolo[1,5-a]pyrazin-2-amine] | ≤ 10 | more active isomer
